GI50 and TGI data for one compound are collected here from PubChem BioAssay (NCI).

What all share (test): NCI-60 cell line screen, 48 h
The subject of assay [1] is SF-268 CNS.
For assay [2], the system named is MCF7 breast.
Assay [3] has as its system HL-60(TB) leukemia.
The subject of assay [4] is SR leukemia.
For assay [5], the system named is MOLT-4 leukemia.
For assay [6], the system named is BT-549 breast.
Assay [7] concerns K-562 leukemia.
The test system of assay [8] is RXF 393 renal.
Assay [9] has as its system HOP-92 NSCLC.
The test system of assay [10] is SK-MEL-2 melanoma.

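48-hour exposure; five concentrations; linearly interpolated endpoints. Here, GI50 denotes the concentration required for 50% inhibition of growth. Definition used: TGI = concentration required for complete inhibition of growth.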 Some results are limits rather than exact numbers.

Regarding `CO/N=C1\CCc2c(sc(NC(=O)c3cccc(C(F)(F)F)c3)c2C(N)=O)C1`, the GI50 was 4.25 µM in assay [1]; 2.37 µM in assay [2]; more than 100 µM in assay [3]; more than 100 µM in [4]; more than 100 µM in assay [5]; 3.53 µM in assay [6]. The GI50 in assay [7] was more than 100 µM; in assay [8] it was 1.91 µM; in assay [9], 1.56 µM; in assay [10] it was 4.08 µM. Besides, the TGI in [1], in [2], in assay [3], in assay [4], in assay [5] and in [6] was more than 100 µM in each case. Also, the TGI is more than 100 µM in assay [7], 3.65 µM in assay [8], 4.06 µM in assay [9] and 96.3 µM in [10].
